From US20220323406A1, “METHODS AND COMPOSITIONS FOR DIFFERENTIATING STEM CELLS” (Massachusetts Institute of Technology, priority 2019, published 2022)

Legend:
ENR+CD organoids [1] = test: Secondary (validation) screen: ATP (CTG) assay, 2.5-D 384-well ENR+CD organoids; assay type: cell-based, mouse; details: 6-day ENR+CD, vs ENR+CD+DMSO
Experimental: (§1) Drugs were tested at a narrowed dose range around each treatment's identified optimal dose from the primary screen (4× below, 2× above and below).
(§2) High-throughput screening.
(§3) Secondary lysozyme secretion assay screen. Confirmatory secondary screening with primary hits was performed using the above 384-well plate method. The screen was conducted with 4-plate replicates with a base media of ENR+CD. Media was supplemented with compound at day 0 and day 3 (n=8 well replicates per dose) at four different doses: two-fold above, two-fold below, and four-fold below the optimal final dose for each respective treatment. Additionally, each plate carried a large number of ENR+DMSO or ENR+CD+DMSO (vehicle) control wells (n=100 for ATP, and n=25 for LYZ.NS and LYZ.S) for robust normalization. ATP, non-stimulated lysozyme activity and CCh-stimulated lysozyme activity was again measured and the collected data was again processed in a custom R-script, per primary screen with slight modification. Values were log10 transformed, and a plate-wise FC was calculated for each well based on the median value of ENR+CD+DMSO (vehicle) control wells to normalize plate to plate variability.

[2] = test system: ENR+CD organoids (ISC to Paneth cell differentiation); test: Secondary (validation) screen: LYZ.S CCh-stimulated lysozyme secretion, 2.5-D 384-well ENR+CD organoids; assay type: cell-based, mouse; details: 6-day ENR+CD, vs ENR+CD+DMSO
Experimental: as §1, §2, §3

[3] = test system: ENR+CD organoids (ISC to Paneth cell differentiation); test: Secondary (validation) screen: LYZ.NS basal lysozyme secretion, 2.5-D 384-well ENR+CD organoids; assay type: cell-based, mouse; details: 6-day ENR+CD, vs ENR+CD+DMSO
Experimental: as §1, §2, §3

[4] = test system: ENR+CD organoids (ISC to Paneth cell differentiation); test: Primary screen: CCh-stimulated lysozyme secretion LYZ.S, 2.5-D 384-well ENR+CD organoid differentiation; assay type: cell-based, mouse; details: primary screen
Description: as §2

[5] = test system: ENR+CD organoids (ISC to Paneth cell differentiation); test: Primary screen: basal (non-stimulated) lysozyme secretion LYZ.NS, 2.5-D 384-well ENR+CD organoid differentiation; assay type: cell-based, mouse
Description: as §2

ENR+CD organoids [6] = test: Primary screen: ATP (CellTiter-Glo 3D, CTG) cell number/viability, 2.5-D 384-well ENR+CD organoids; details: primary screen;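 further: compounds given at plating and again on day 3 over a 6-day differentiation from ENR+CV stem-cell-enriched precursors, ATP measured on day 6, plate median as control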
[7] = LYZ.NS and LYZ.S; 0.08-10 uM, 6 days ENR+CD
[8] = dose 0.08 uM, FC relative to plate median
[9] = dose 0.40 uM, FC relative to plate median
[10] = dose 2.00 uM, FC relative to plate median
[11] = dose 10.00 uM, FC relative to plate median

For `CC(C)(C)NC(=O)[C@H]1CC[C@H]2[C@@H]3CC[C@H]4NC(=O)C=C[C@]4(C)[C@H]3CC[C@]12C` [Finasteride, reference compound], the Dose.FC.CTG (ENR+CD organoids [1]; 0.02 uM) was 0.066 log2 fold change, the Dose.FC.CTG (ENR+CD organoids [1]; 0.04 uM) was −0.180 log2 fold change and the Dose.FC.CTG (ENR+CD organoids [1]; 0.08 uM) was −0.011 log2 fold change. It also gave a Dose.FC.CTG (ENR+CD organoids [1]; […]) of −0.065 log2 fold change, a Dose.FC.LYZ.S ([2]; 0.02 uM) of −0.019 log2 fold change and a Dose.FC.LYZ.S ([2]; 0.04 uM) of −0.260 log2 fold change. The Dose.FC.LYZ.S ([2]; 0.08 uM) was −0.242 log2 fold change, the Dose.FC.LYZ.S ([2]; […]) was −0.253 log2 fold change and the Dose.FC.LYZ.NS ([3]; 0.02 uM) was 0.056 log2 fold change. It also gave a Dose.FC.LYZ.NS ([3]; 0.04 uM) of −0.189 log2 fold change, a Dose.FC.LYZ.NS ([3]; 0.08 uM) of −0.191 log2 fold change and a Dose.FC.LYZ.NS ([3]; […]) of −0.203 log2 fold change. It also gave a Dose.FC.LYZ.S ([4]; dose 0.08 uM) of 0.199 log2 fold change, a Dose.FC.LYZ.S ([4]; dose 0.40 uM) of 0.211 log2 fold change and a Dose.FC.LYZ.S ([4]; dose 2.00 uM) of 0.156 log2 fold change. The Dose.FC.LYZ.S ([4]; dose 10.00 uM) was 0.056 log2 fold change, the “primary screen hit call (SSMD and z-scored FC cutoffs in both LYZ assays)” value [5, 7] was “sole hit in their respective pathway” and the Dose.FC.LYZ.NS ([5]; primary screen, dose 0.08 uM) was 0.205 log2 fold change. For the same compound, the Dose.FC.LYZ.NS ([5]; primary screen, dose 0.40 uM) was 0.213 log2 fold change, the Dose.FC.LYZ.NS ([5]; primary screen, dose 2.00 uM) was 0.142 log2 fold change and the Dose.FC.LYZ.NS ([5]; primary screen, dose 10.00 uM) was 0.067 log2 fold change. For the same compound, the Z.LYZ.NS ([5]; primary screen, standard z score, dose 0.08 uM) was 1.781, the Z.LYZ.NS ([5]; primary screen, standard z score, dose 0.40 uM) was 1.852 and the Z.LYZ.NS ([5]; primary screen, standard z score, dose 2.00 uM) was 1.236. For the same compound, the Z.LYZ.NS ([5]; primary screen, standard z score, dose 10.00 uM) was 0.587, the Dose.FC.CTG (ENR+CD organoids [6]; dose 0.08 uM) was 0.151 log2 fold change and the Dose.FC.CTG (ENR+CD organoids [6]; dose 0.40 uM) was −0.038 log2 fold change. It also gave a Dose.FC.CTG (ENR+CD organoids [6]; dose 2.00 uM) of 0.073 log2 fold change and a Dose.FC.CTG (ENR+CD organoids [6]; dose 10.00 uM) of −0.041 log2 fold change.
With `COc1ccc(C2CNC(=O)C2)cc1OC1CCCC1` (stereo not shown) [Rolipram, reference compound] the Dose.FC.CTG (ENR+CD organoids [1]; 0.50 uM) was 0.053 log2 fold change, the Dose.FC.CTG (ENR+CD organoids [1]; 1.00 uM) was 0.133 log2 fold change and the Dose.FC.CTG (ENR+CD organoids [1]; 2.00 uM) was 0.202 log2 fold change. For the same compound, the Dose.FC.CTG (ENR+CD organoids [1]; 4.00 uM) was 0.065 log2 fold change, the Dose.FC.LYZ.S ([2]; 0.50 uM) was −0.082 log2 fold change and the Dose.FC.LYZ.S ([2]; 1.00 uM) was 0.104 log2 fold change. For the same compound, the Dose.FC.LYZ.S ([2]; 2.00 uM) was 0.030 log2 fold change, the Dose.FC.LYZ.S ([2]; 4.00 uM) was −0.071 log2 fold change and the Dose.FC.LYZ.NS ([3]; 0.50 uM) was −0.043 log2 fold change. For the same compound, the Dose.FC.LYZ.NS ([3]; 1.00 uM) was 0.152 log2 fold change, the Dose.FC.LYZ.NS ([3]; 2.00 uM) was 0.099 log2 fold change and the Dose.FC.LYZ.NS ([3]; 4.00 uM) was −0.051 log2 fold change. For the same compound, the Dose.FC.LYZ.S [4, 8] was 0.239 log2 fold change, the Dose.FC.LYZ.S [4, 9] was 0.156 log2 fold change and the Dose.FC.LYZ.S [4, 10] was 0.337 log2 fold change. The Dose.FC.LYZ.S [4, 11] was 0.223 log2 fold change, the “primary screen hit call (SSMD and z-scored FC cutoffs in both LYZ assays)” value [5, 7] was “sole hit in their respective pathway” and the Dose.FC.LYZ.NS ([5]; primary screen, dose 0.08 uM, FC relative to plate median) was 0.406 log2 fold change. The Z.LYZ.NS ([5]; primary screen, dose 0.08 uM, standard z score) was 3.532, the Dose.FC.LYZ.NS ([5]; primary screen, dose 0.40 uM, FC relative to plate median) was 0.063 log2 fold change and the Z.LYZ.NS ([5]; primary screen, dose 0.40 uM, standard z score) was 0.545. The Dose.FC.LYZ.NS ([5]; primary screen, dose 2.00 uM, FC relative to plate median) was 0.169 log2 fold change, the Z.LYZ.NS ([5]; primary screen, dose 2.00 uM, standard z score) was 1.470 and the Dose.FC.LYZ.NS ([5]; primary screen, dose 10.00 uM, FC relative to plate median) was 0.112 log2 fold change. The Z.LYZ.NS ([5]; primary screen, dose 10.00 uM, standard z score) was 0.975, the Dose.FC.CTG (ENR+CD organoids [6]; [8]) was 0.356 log2 fold change and the Dose.FC.CTG (ENR+CD organoids [6]; [9]) was 0.155 log2 fold change. For the same compound, the Dose.FC.CTG (ENR+CD organoids [6]; [10]) was 0.396 log2 fold change and the Dose.FC.CTG (ENR+CD organoids [6]; [11]) was 0.299 log2 fold change.
